Measurements published in ChEMBL document CHEMBL1136504, “Novel bicyclic furanopyrimidines with dual anti-VZV and -HCMV activity” (Bioorg Med Chem Lett, 2003).

Assays:
Human alphaherpesvirus 3 [1] = experiment: Antiviral activity evaluated against thymidine kinase deficient(TK-) Varicella Zoster virus (YS); assay type: functional, organism-based
Human betaherpesvirus 5 [2] = experiment: Antiviral activity evaluated against human cytomegalovirus (HCMV) Davis; assay type: functional, organism-based
Human alphaherpesvirus 3 [3] = experiment: Concentration required to give 50% inhibition of replication of VZV OKA in tissue culture; assay type: functional, organism-based
HEL [4] = experiment: Minimal cytotoxic concentration required to cause a morphological alteration of human embryonic lung fibroblast(HEL) cell cultures; assay type: functional
HEL [5] = experiment: Concentration required against HEL cell proliferation; assay type: functional; details: Homo sapiens
Human alphaherpesvirus 3 [6] = experiment: Antiviral activity evaluated against thymidine kinase competent(TK+) Varicella Zoster virus (07); assay type: functional, organism-based
Human betaherpesvirus 5 [7] = experiment: Antiviral activity evaluated against human cytomegalovirus (HCMV) AD169; assay type: functional, organism-based
Human alphaherpesvirus 3 [8] = experiment: Antiviral activity evaluated against Varicella Zoster virus (YS); assay type: functional, organism-based

O=c1nc2oc(CCCCCCCCCOCCCCCl)cc2cn1[C@H]1C[C@H](O)[C@@H](CO)O1
EC50 (Human alphaherpesvirus 3 [1]): ≥ 50 µM | EC50 (Human betaherpesvirus 5 [2]): 30 µM | EC50 (Human alphaherpesvirus 3 [3]): 0.05 µM | MCC (HEL [4]): ≥ 200 µM | CC50 (HEL [5]): > 200 µM | EC50 (Human alphaherpesvirus 3 [6]): ≥ 200 µM | EC50 (Human betaherpesvirus 5 [7]): 9.7 µM | EC50 (Human alphaherpesvirus 3 [8]): 0.03 µM

CCCCCCCOCCc1cc2cn([C@H]3C[C@H](O)[C@@H](CO)O3)c(=O)nc2o1
EC50 (Human alphaherpesvirus 3 [3]): 6 µM

CC(C)CCOCCCCCCCCCc1cc2cn([C@H]3C[C@H](O)[C@@H](CO)O3)c(=O)nc2o1
EC50 (Human alphaherpesvirus 3 [1]): > 5 µM | EC50 (Human betaherpesvirus 5 [2]): 5 µM | EC50 (Human alphaherpesvirus 3 [3]): 0.05 µM | MCC (HEL [4]): 10 µM | CC50 (HEL [5]): > 200 µM | EC50 (Human alphaherpesvirus 3 [6]): > 5 µM | EC50 (Human betaherpesvirus 5 [7]): > 5 µM | EC50 (Human alphaherpesvirus 3 [8]): 0.06 µM

O=c1nc2oc(CCCCCCCCCOCC3CCCC3)cc2cn1[C@H]1C[C@H](O)[C@@H](CO)O1
EC50 (Human alphaherpesvirus 3 [1]): > 5 µM | EC50 (Human betaherpesvirus 5 [2]): 5 µM | EC50 (Human alphaherpesvirus 3 [3]): 0.09 µM | MCC (HEL [4]): ≥ 5 µM | CC50 (HEL [5]): > 200 µM | EC50 (Human alphaherpesvirus 3 [6]): > 5 µM | EC50 (Human betaherpesvirus 5 [7]): > 5 µM | EC50 (Human alphaherpesvirus 3 [8]): 0.1 µM

CCCCOCCCCCCCCCc1cc2cn([C@H]3C[C@H](O)[C@@H](CO)O3)c(=O)nc2o1
EC50 (Human alphaherpesvirus 3 [1]): > 5 µM | EC50 (Human betaherpesvirus 5 [2]): > 5 µM | EC50 (Human alphaherpesvirus 3 [3]): 0.02 µM | MCC (HEL [4]): 20 µM | CC50 (HEL [5]): > 200 µM | EC50 (Human alphaherpesvirus 3 [6]): > 5 µM | EC50 (Human betaherpesvirus 5 [7]): > 5 µM | EC50 (Human alphaherpesvirus 3 [8]): 0.03 µM

CCCCCOCCCCCCCCCc1cc2cn([C@H]3C[C@H](O)[C@@H](CO)O3)c(=O)nc2o1
EC50 (Human alphaherpesvirus 3 [1]): > 5 µM | EC50 (Human betaherpesvirus 5 [2]): > 5 µM | EC50 (Human alphaherpesvirus 3 [3]): 0.01 µM | MCC (HEL [4]): 10 µM | CC50 (HEL [5]): > 200 µM | EC50 (Human alphaherpesvirus 3 [6]): > 5 µM | EC50 (Human betaherpesvirus 5 [7]): > 5 µM | EC50 (Human alphaherpesvirus 3 [8]): 0.02 µM

Nc1nc2c(ncn2COC(CO)CO)c(=O)[nH]1 [GANCICLOVIR]
EC50 (Human betaherpesvirus 5 [2]): 5.7 µM | MCC (HEL [4]): > 150 µM | CC50 (HEL [5]): > 150 µM | EC50 (Human betaherpesvirus 5 [7]): 4 µM
